From US20190247353A1, “ACNE STRAIN-SELECTIVE ANTIBACTERIAL AGENT” (MOMOTANI JUNTENKAN CO., LTD., priority 2016, published 2019)
≈ marks a conversion by molar mass, not a printed value. Read-outs that look alike come from different tables or passages of the source. Each block holds one molecule with its values, some of them ahead of it.

Tests used:
Type in all cases: cell-based, Propionibacterium acnes
[1] = tested on: HL053PA1 strain (RT4); experiment: MIC by broth microdilution method, HL053PA1 strain; settings: for MIC: Cutibacterium acnes; for MIC against acne bacterium strain HL053PA1 strain (RT4): monoacylglycerols, Example 3, method as Example 1
Protocol: (§1) An MIC is measured herein according to the broth microdilution method which is the standard method of Japanese Society of Chemotherapy.
(§2) The antibacterial activity of a test substance was determined based on the minimum inhibitory concentration (MIC). An MIC was measured according to the broth microdilution method which is the standard method of Japanese Society of Chemotherapy.
(§3) One-loopful of each acne bacterium strain listed in Table 1 was scraped off and inoculated into 5 mL of a GAM broth slant agar medium (pH 7.0, Nissui Pharmaceutical Co., Ltd.).
(§4) The inoculated acne bacterium strain was precultured at 37° C. in a nitrogen atmosphere (anaerobic condition) for 48 hours. The precultured microbial cells were diluted in a modified GAM broth liquid medium (pH 6.0) to a concentration of 5.0×10^4 cfu/mL (viable cell count per OD660=1 is 2.0×10^9 cfu/mL), to prepare strain suspensions.
(§5) Each fatty acid (Tokyo Chemical Industry Co., Ltd.) listed in Table 2 was dissolved in dimethylsulfoxide (DMSO) as a solvent such that the concentration became 10,000 μg/mL, and used as a test substance.
(§6) Each of strain suspensions (5.0×10^4 cfu/mL) was aliquoted in a 96-well round bottom microplate, each of the test substance (fatty acid concentration 10,000 μg/mL) was added at a 1/10 volume to the aliquot and mixed to prepare measurement samples (fatty acid concentration: 1,000 μg/mL). Measurement samples in 2-fold dilution series were prepared using the strain suspension (fatty acid concentration from 0.48 to 1,000 μg/mL).
(§7) […] The presence or absence of a precipitation of test microbial cells after the incubation was examined and the minimum concentration at which the precipitation of microbial cells […] was regarded as the MIC (μg/mL) of the test substance against the acne bacterium strain.

[2] = tested on: HL043PA1 strain (RT5); experiment: MIC by broth microdilution method, HL043PA1 strain; settings: for MIC: Cutibacterium acnes; for MIC against acne bacterium strain HL043PA1 strain (RT5): monoacylglycerols, Example 3, method as Example 1
Protocol: as §1, §2, §3
The inoculated acne bacterium strain was precultured at 37° C. in a nitrogen atmosphere (anaerobic condition) for 48 hours. […]
as §5, §6
The measurement samples were incubated under an anaerobic condition at 37° C. for 2 days. The presence or absence of a precipitation of test microbial cells after the incubation was examined and the minimum concentration at which the precipitation of microbial cells […] was regarded as the MIC (μg/mL) of the test substance against the acne bacterium strain.

[3] = tested on: HL110PA3 strain (RT6); experiment: MIC by broth microdilution method, HL110PA3 strain; settings: for MIC: Cutibacterium acnes; for MIC against acne bacterium strain HL110PA3 strain (RT6): monoacylglycerols, Example 3, method as Example 1
Protocol: as §1, §2, §3, §4, §5, §6, §7

[4] = tested on: HL053PA1 strain (RT4) and HL043PA1 strain (RT5) versus HL110PA3 strain (RT6); experiment: Strain-selective antibacterial activity (average of MICRT6/MICRT4 and MICRT6/MICRT5)
Excerpt: Herein, “acne strain-selective antibacterial activity” or “strain-selective antibacterial activity” means an index indicating better inhibition of growth of a dominant strain in acne patients compared to that of a dominant strain in healthy subjects. It is expressed by the average value of the values (MICRT6/MICRT4, and MICRT6/MICRTS) obtained by dividing the minimum inhibitory concentration (MIC) of an object substance with respect to the dominant strain in healthy subjects (RT6 strain) (MICRT6) respectively by the MIC of the object substance with respect to the dominant strain in acne patients (RT4 strain) (MICRT4), and by the MIC of the object substance with respect to the dominant strain in acne patients (RT5 strain) (MICRT5).
The strain-selective antibacterial activity of each test substance (Table 2, right-most column) was evaluated based on the following rating criteria (Table 3). When the strain-selective antibacterial activity is indicated by a numerical range, the rating was based on the minimum value thereof.

[5] = tested on: HL110PA3 strain (RT6); experiment: MIC by broth microdilution method, HL110PA3 strain; settings: Cutibacterium acnes; control antibiotics, Comparative Example 2, method as Example 1; LOD = MIC <0.48 ng/mL; read-out: MIC against acne bacterium strain HL110PA3 strain (RT6)
[6] = 48 h, pH 6.0 modified GAM broth, anaerobic, 37° C., 2 days (Example 1), read-out: MIC against acne bacterium strain HL053PA1 strain (RT4)
[7] = 48 h, pH 6.0 modified GAM broth, anaerobic, 37° C., 2 days (Example 1), read-out: MIC against acne bacterium strain HL043PA1 strain (RT5)
[8] = 48 h, pH 6.0 modified GAM broth, anaerobic, 37° C., 2 days (Example 1), read-out: MIC against acne bacterium strain HL110PA3 strain (RT6)

MIC [1, 6]: 15.6 µg/mL (≈ 83.7 µM) | MIC [2, 7]: 15.6 µg/mL (≈ 83.7 µM) | MIC [3, 8]: 15.6 µg/mL (≈ 83.7 µM)
Structure (SMILES): CCCCCCCCCCC(=O)O [Undecanoic acid (C11:0), Undecanoic acid, reference compound]
Strain-selective antibacterial activity ([4]; pH 6.0 (Example 1)): 1.0

MIC ([1]; control antibiotics, Comparative Example 2, method as Example 1, read-out: MIC against acne bacterium strain HL053PA1 strain (RT4)): 500 µg/mL (≈ 597 µM) | MIC ([2]; control antibiotics, Comparative Example 2, method as Example 1, read-out: MIC against acne bacterium strain HL043PA1 strain (RT5)): 1000 µg/mL (≈ 1190 µM) | MIC [5]: 0.0038 µg/mL (≈ 0.00454 µM)
Structure (SMILES): CC[C@H]1OC(=O)[C@H](C)[C@@H](O[C@H]2C[C@@](C)(OC)[C@@H](O)[C@H](C)O2)[C@H](C)[C@@H](O[C@@H]2O[C@H](C)C[C@H](N(C)C)[C@H]2O)[C@](C)(O)C[C@@H](C)/C(=N\OCOCCOC)[C@H](C)[C@@H](O)[C@]1(C)O [Roxithromycin, reference compound]

MIC [1, 6]: > 1000 µg/mL | MIC ([1]; 72 h, pH 5.0, estimated from the growth on day 3, read-out: MIC against acne bacterium strain HL053PA1 strain (RT4)): > 1000 µg/mL | MIC ([1]; pH 5.5, read-out: MIC against acne bacterium strain HL053PA1 strain (RT4)): > 1000 µg/mL | MIC ([1]; pH 6.5, read-out: MIC against acne bacterium strain HL053PA1 strain (RT4)): > 1000 µg/mL | MIC ([1]; pH 7.0, read-out: MIC against acne bacterium strain HL053PA1 strain (RT4)): 62.5 µg/mL (≈ 220 µM) | MIC [2, 7]: > 1000 µg/mL | MIC ([2]; 72 h, pH 5.0, estimated from the growth on day 3, read-out: MIC against acne bacterium strain HL043PA1 strain (RT5)): > 1000 µg/mL | MIC ([2]; pH 6.5, read-out: MIC against acne bacterium strain HL043PA1 strain (RT5)): > 1000 µg/mL | MIC ([2]; pH 7.0, read-out: MIC against acne bacterium strain HL043PA1 strain (RT5)): 31.3 µg/mL (≈ 110 µM) | MIC [3, 8]: > 1000 µg/mL | MIC ([3]; 72 h, pH 5.5, estimated from the growth on day 3, read-out: MIC against acne bacterium strain HL110PA3 strain (RT6)): > 1000 µg/mL | MIC ([3]; 96 h, pH 5.0, estimated from the growth on day 4, read-out: MIC against acne bacterium strain HL110PA3 strain (RT6)): > 1000 µg/mL | MIC ([3]; pH 6.5, read-out: MIC against acne bacterium strain HL110PA3 strain (RT6)): > 1000 µg/mL | MIC ([3]; pH 7.0, read-out: MIC against acne bacterium strain HL110PA3 strain (RT6)): 1000 µg/mL (≈ 3520 µM)
Structure (SMILES): CCCCCCCCCCCCCCCCCC(=O)O [Stearic acid (C18:0), Stearic acid]
Strain-selective antibacterial activity ([4]; pH 7.0): 24 | Strain-selective antibacterial activity at each pH ([4]; pH 7 (summary Table 10)): 24

MIC [1, 6]: 15.6 µg/mL (≈ 72.8 µM) | MIC [2, 7]: 31.3 µg/mL (≈ 146 µM) | MIC [3, 8]: 15.6 µg/mL (≈ 72.8 µM)
Structure (SMILES): CCCCCCCCCCCCC(=O)O [Tridecanoic acid (C13:0), Tridecanoic acid, reference compound]
Strain-selective antibacterial activity ([4]; pH 6.0 (Example 1)): 0.75

Continued, molecule first:

Structure (SMILES): CCCCCCCCCC(=O)O [Capric acid (C10:0), Capric acid, reference compound]
MIC [1, 6]: 500 µg/mL (≈ 2900 µM) | MIC [2, 7]: 500 µg/mL (≈ 2900 µM) | MIC [3, 8]: 250 µg/mL (≈ 1450 µM) | Strain-selective antibacterial activity ([4]; pH 6.0 (Example 1)): 0.50

Structure (SMILES): CCCCCCCCCCCCCCC(=O)OCC(O)CO (stereo not drawn) [Monopentadecanoin]
MIC against acne bacterium strain HL053PA1 strain (RT4) [1]: 15.6 µg/mL (≈ 49.3 µM) | MIC against acne bacterium strain HL043PA1 strain (RT5) [2]: 7.81 µg/mL (≈ 24.7 µM) | MIC against acne bacterium strain HL110PA3 strain (RT6) [3]: 62.5 µg/mL (≈ 197 µM) | Strain-selective antibacterial activity ([4]; monoacylglycerols, Example 3): 6.0

Structure (SMILES): CCCCCCCCC(=O)O [Nonanoic acid (C9:0), Nonanoic acid, reference compound]
MIC [1, 6]: 500 µg/mL (≈ 3160 µM) | MIC [2, 7]: 250 µg/mL (≈ 1580 µM) | MIC [3, 8]: 250 µg/mL (≈ 1580 µM) | Strain-selective antibacterial activity ([4]; pH 6.0 (Example 1)): 0.75

Structure (SMILES): Oc1cc(Cl)ccc1Oc1ccc(Cl)cc1Cl [Triclosan, reference compound]
MIC ([1]; read-out: MIC against acne bacterium strain HL053PA1 strain (RT4)): 0.975 µg/mL (≈ 3.37 µM) | MIC ([2]; read-out: MIC against acne bacterium strain HL043PA1 strain (RT5)): 1.95 µg/mL (≈ 6.73 µM) | MIC ([3]; read-out: MIC against acne bacterium strain HL110PA3 strain (RT6)): 3.9 µg/mL (≈ 13.5 µM) | Strain-selective antibacterial activity ([4]; control antibacterial agents, Comparative Example 1): 3.0

Structure (SMILES): CCCCCCCCCCCCCCCC(=O)OCC(O)CO (stereo not drawn) [Monopalmitin]
MIC against acne bacterium strain HL053PA1 strain (RT4) [1]: 250 µg/mL (≈ 756 µM) | MIC against acne bacterium strain HL043PA1 strain (RT5) [2]: 31.3 µg/mL (≈ 94.7 µM) | MIC against acne bacterium strain HL110PA3 strain (RT6) [3]: 1000 µg/mL (≈ 3030 µM) | Strain-selective antibacterial activity ([4]; monoacylglycerols, Example 3): 18

Structure (SMILES): CCCCCC(=O)O [Caproic acid (C6:0), Caproic acid, reference compound]
MIC ([1]; 48 h, pH 6, read-out: MIC against acne bacterium strain HL053PA1 strain (RT4)): 62.5 µg/mL (≈ 538 µM) | MIC ([2]; 48 h, pH 6, read-out: MIC against acne bacterium strain HL043PA1 strain (RT5)): 62.5 µg/mL (≈ 538 µM) | MIC ([3]; 48 h, pH 6, read-out: MIC against acne bacterium strain HL110PA3 strain (RT6)): 62.5 µg/mL (≈ 538 µM) | Strain-selective antibacterial activity ([4]; pH 6.0 (Example 1)): 1.0
